pIC50: −log10 of the molar value.

One assay has as its target T1, mouse SSAO protein (Mus musculus, UniProt O70423).
T1 construct: Eli Lilly (provided, not a catalogue product)
T1 sequence (O70423 1-765): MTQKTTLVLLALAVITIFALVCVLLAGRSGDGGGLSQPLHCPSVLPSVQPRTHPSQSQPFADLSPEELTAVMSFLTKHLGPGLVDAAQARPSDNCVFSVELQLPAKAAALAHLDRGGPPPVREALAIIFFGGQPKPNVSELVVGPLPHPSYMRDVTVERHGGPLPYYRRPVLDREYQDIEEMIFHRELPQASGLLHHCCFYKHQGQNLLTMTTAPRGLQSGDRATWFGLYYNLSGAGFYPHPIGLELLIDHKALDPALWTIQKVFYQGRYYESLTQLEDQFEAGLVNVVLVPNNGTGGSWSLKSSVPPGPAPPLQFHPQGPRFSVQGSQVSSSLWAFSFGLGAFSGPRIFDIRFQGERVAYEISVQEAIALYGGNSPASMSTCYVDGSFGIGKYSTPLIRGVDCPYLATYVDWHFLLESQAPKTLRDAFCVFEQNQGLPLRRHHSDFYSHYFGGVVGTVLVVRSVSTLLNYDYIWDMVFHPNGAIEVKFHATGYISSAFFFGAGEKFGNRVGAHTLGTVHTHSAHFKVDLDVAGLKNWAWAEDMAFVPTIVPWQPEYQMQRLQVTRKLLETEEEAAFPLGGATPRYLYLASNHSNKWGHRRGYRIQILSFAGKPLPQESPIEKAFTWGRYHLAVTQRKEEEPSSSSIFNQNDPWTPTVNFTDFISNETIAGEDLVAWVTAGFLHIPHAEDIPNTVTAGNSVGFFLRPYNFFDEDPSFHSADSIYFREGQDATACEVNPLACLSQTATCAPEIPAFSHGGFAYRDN
The experiment in a line: In vitro inhibitory activity on SSAO/VAP-1 (MAO-Glo assay), mouse. It counts as biochemical. The method, then:
This assay was used to evaluate the in vitro inhibitory activity of the compounds on SSAO/VAP-1 of different species. Recombinant human SSAO protein, mouse SSAO protein or rat SSAO protein (provided by Eli Lilly) were used. The enzyme activity detection kit, MAO-Glo Assay kit (V1402) was purchased from Promega. Enzyme reaction buffer (50 mM HEPES, 120 mM NaCl, 5 mM KCl, 2 mM CaCl2, 1.4 mM MgCl2, 0.001% Tween-20, pH7.4) was prepared. The test compound was dissolved in DMSO and diluted by 3-fold concentration in gradient. The final concentration of test compound in a 10 μL reaction system was 1 μM to 0.05 nM when SSAO was detected. The content of DMSO in the detection reaction was 1%. After the solution of test compound in DMSO was diluted in the enzyme reaction buffer at a volume ratio of 1:25, 2.5 μL of which was added to each well of detection plate, two replicates for each concentration. 5 μL of SSAO protein diluted in the enzyme reaction buffer was added to each well, the final concentration of which was 10 nM to 80 nM in 10 μL reaction system. The mixture was incubated at room temperature for 10 minutes. 2.5 μL of the reaction substrate diluted in the enzyme reaction buffer was added to each well, the final concentration of which was 10 μM in 10 μL reaction system. After the mixture was reacted at room temperature for 120 minutes, 10 μL of detection reagent was added to each well. The reaction solution was incubated for 20 minutes at room temperature, and the plate was read with Synergy Neo 2 for detection. The value was converted into inhibition rate by the following formula: Inhibition rate=(Signalpositive−Signaltest)/(Signalpositive−Signalnegative)×100%
Signalpositive was positive control without test compound. Signalnegative was negative control without test compound and SSAO enzyme, and Signaltest was detection value of each compound at different concentrations. IC50 value was calculated by using 4 parameter curve fitting.

Assay [1] has as its system ALOX5AP, SOCS3 and TLR7 gene expression in retina. The experiment in a line: LPS-induced ocular inflammation model: qPCR of inflammation-related genes in retina. It counts as in vivo. The conditions noted are these: rat, 6 mg/kg oral, compared with model group. As for the experimental part: (§1) 22 rats (7-8 weeks, 220-250 g) were divided into 3 groups, which were control group (6), model group (8) and compound treated group (8). For the model group and compound treated group, ocular inflammation was induced by a single injection of 8 μg/100 μL lipopolysaccharide (Sigma-Aldrich-L2880) into the footpad. The rats were grouped according to their body weight 1 h before induction. Example 4 compound (6 mg/kg, 10 mL/kg) or vehicle (10 mL/kg) were orally administered respectively. 24 hours after induction, the anterior aqueous humor was collected and the eyeballs were removed to dissect the retina. Ocular inflammation was quantitatively evaluated by measuring the protein concentration and cell number in the aqueous humor. qPCR method was used to verify changes in the expression of ocular retinal inflammation-related genes.
• 1) Primers were synthesized, with the information shown as follows:
• 2) Retinal RNA was extracted according to operating instructions of RNA extraction kit (RNeasy Mini Kit, Qiagen-74104), and then the RNA was reverse-transcribed into cDNA (High Capacity cDNA Reverse Transcription Kits, ABI-4374966). The obtained cDNA was diluted 10 times to serve as qPCR reaction template. According to instructions of Power SYBR Green kit (ABI-A25918), qPCR reaction was performed on CFX384 Real-Time qPCR equipment. Quantitative analysis of expression changes for each gene expression was performed using CFX Maestro software by ΔΔCt method, with UBC as internal housekeeping gene.

The test system of assay [2] is LPS-induced inflammatory disease model in rats. Briefly: LPS-induced ocular inflammation model: protein concentration and cell number in aqueous humor. It counts as in vivo. To be noted: rat, LPS footpad injection, 6 mg/kg oral 1 h before induction, 24 hours after induction, mean±SEM. As for the experimental part:
as §1
10 μL of aqueous humor was diluted in 40 μL of PBS and mixed, then 25 μL of mixture was mixed with 75 μL of PBS, and centrifuged at 300 g for 5 min at 4° C. 55 μL of supernatant was aspirated carefully and the protein concentration was determined according to the method described in the BCA Protein Assay Kit (Pierce-23227); after the remaining sample was resuspended, 40 μL of cell suspension was added into 100 μL of 1% FBS/PBS to analyze and count live cells using NovoCyte 3130 flow cytometry after excluding cell debris.

The term pIC50 denotes −log10 of the IC50, conventionally taken in molar units. Consider `COC1CC2CC1CN2c1ncc(OC/C(=C/F)CN)cn1` (centres unmarked) [Example 2], for which, on mouse SSAO protein, the pIC50 is more than 7.00.
`NC/C(=C\F)COc1cnc(N2CCN(C3COC3)CC2)nc1` [Example 4, (E)-3-fluoro-2-(((2-(4-(oxbutan-3-yl)piperazin-1-yl)pyrimidin-5-yl)oxo)methyl)prop-2-en-1-amine]: the pIC50 on mouse SSAO protein was more than 7.00. Also, in assay [1], the “expression level of ALOX5AP gene in retina” value is recorded as “significantly reduce”, the “expression level of SOCS3 gene in retina” value was “significantly reduce” and the “expression level of TLR7 gene in retina” value is on record as “significantly reduce”. Besides, in assay [2] (model group 48.28±21.46), the “cell number in aqueous humor” value is listed as 5.07±0.80 *10^4 cell/mL. The “protein concentration in aqueous humor” value in assay [2] (model group 9730.04±1232.30) worked out at 7275.44 ± 622.66 µg/mL.
`COC1CC2CCC(C1)N2c1ncc(OC/C(=C/F)CN)cn1` (centres unmarked) [Example 12]: on mouse SSAO protein, the pIC50 was more than 7.00.

The values are drawn from patent publication US12258336B2, “Preparation of seimicarbazide-sensitive amine oxidase inhibitor and use thereof” (SHANGHAI ENNOVABIO PHARMACEUTICALS CO., LTD., priority 2018, dated 2025).
